Experimental data taken from PMC6017481, “Design, Synthesis, and Biological Evaluation of 2-(Benzylamino-2-Hydroxyalkyl)Isoindoline-1,3-Diones Derivatives as Potential Disease-Modifying Multifunctional Anti-Alzheimer Agents” (Molecules : A Journal of Synthetic Chemistry and Natural …, 2018).
Like-named read-outs stand apart in the source and are kept apart here.

How the values were obtained:
[1] = target: T1, eeAChE (AChE from Electrophorus electricus) (Electrophorus electricus, UniProt O42275); assay: biochemical; details: for inhibition at 10 µM: at 10 μM inhibitor concentration, mean ± SD, read-out: eeAChE % Inh.; for IC50: AChE from electric eel, mean ± SEM, at least three experiments
T1 construct: purchased Sigma-Aldrich

[2] = target: eqBuChE (BuChE from equine serum) (Equus caballus, UniProt P81908); assay: biochemical; details: for inhibition at 10 µM: at 10 μM inhibitor concentration, mean ± SD, read-out: eqBuChE % Inh.
[3] = target: T2, human recombinant BACE-1 (hBACE-1) (Homo sapiens, UniProt P56817); assay: BACE-1 FRET assay (PanVera kit); format: biochemical; details: at 50 μM inhibitor concentration; mean ± SD; read-out: hBACE-1 % Inh.
T2 construct: purchased PanVera BACE-1 FRET Assay Kit, bought from Life Technologies Polska Sp. z o.o; host or cells: baculovirus expression

[4] = target: T3, Aβ1–42 peptide aggregation (Homo sapiens, UniProt P05067); assay: Thioflavin T-based fluorometric assay of Aβ aggregation; format: biochemical; details: read-out: Aβ-Aggr. % Inh.
T3 construct: Recombinant human HFIP-pretreated Aβ1–42 peptide; purchased Merck Millipore, Darmstadt, Germany

[5] = test system: human AChE; set-up: method as in PMID 25621991; details: cited from earlier work
[6] = test system: Aβ aggregation; set-up: method as in PMID 25621991; details: at 10 μM; cited from earlier work
[7] = test system: Aβ toxicity; set-up: method as in PMID 25621991; details: at 1 μM and 3 μM; cited from earlier work
[8] = at 10 μM inhibitor concentration, 1.5 μM Aβ1–42, mean ± SD

T1 sequence (O42275 24-633): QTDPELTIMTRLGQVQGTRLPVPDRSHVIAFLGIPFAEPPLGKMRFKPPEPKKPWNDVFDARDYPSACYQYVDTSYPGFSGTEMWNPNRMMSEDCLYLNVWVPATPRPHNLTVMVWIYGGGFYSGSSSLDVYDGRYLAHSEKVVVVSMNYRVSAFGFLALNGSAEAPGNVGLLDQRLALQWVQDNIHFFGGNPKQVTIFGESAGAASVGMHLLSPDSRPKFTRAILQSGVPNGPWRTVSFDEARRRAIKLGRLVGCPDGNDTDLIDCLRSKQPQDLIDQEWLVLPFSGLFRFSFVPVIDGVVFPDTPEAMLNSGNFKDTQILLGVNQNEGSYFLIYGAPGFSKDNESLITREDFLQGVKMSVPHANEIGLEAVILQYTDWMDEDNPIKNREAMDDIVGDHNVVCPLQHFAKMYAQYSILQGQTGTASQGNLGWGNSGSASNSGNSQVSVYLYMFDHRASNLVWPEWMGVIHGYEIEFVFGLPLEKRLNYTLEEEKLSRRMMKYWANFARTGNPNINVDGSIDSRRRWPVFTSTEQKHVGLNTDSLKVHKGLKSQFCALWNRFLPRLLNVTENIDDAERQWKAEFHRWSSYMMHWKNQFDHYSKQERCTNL
T3 sequence (P05067 672-713 limits assumed): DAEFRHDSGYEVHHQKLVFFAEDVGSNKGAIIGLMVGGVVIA
Chain of eqBuChE (BuChE from equine serum) (P81908 whole entry): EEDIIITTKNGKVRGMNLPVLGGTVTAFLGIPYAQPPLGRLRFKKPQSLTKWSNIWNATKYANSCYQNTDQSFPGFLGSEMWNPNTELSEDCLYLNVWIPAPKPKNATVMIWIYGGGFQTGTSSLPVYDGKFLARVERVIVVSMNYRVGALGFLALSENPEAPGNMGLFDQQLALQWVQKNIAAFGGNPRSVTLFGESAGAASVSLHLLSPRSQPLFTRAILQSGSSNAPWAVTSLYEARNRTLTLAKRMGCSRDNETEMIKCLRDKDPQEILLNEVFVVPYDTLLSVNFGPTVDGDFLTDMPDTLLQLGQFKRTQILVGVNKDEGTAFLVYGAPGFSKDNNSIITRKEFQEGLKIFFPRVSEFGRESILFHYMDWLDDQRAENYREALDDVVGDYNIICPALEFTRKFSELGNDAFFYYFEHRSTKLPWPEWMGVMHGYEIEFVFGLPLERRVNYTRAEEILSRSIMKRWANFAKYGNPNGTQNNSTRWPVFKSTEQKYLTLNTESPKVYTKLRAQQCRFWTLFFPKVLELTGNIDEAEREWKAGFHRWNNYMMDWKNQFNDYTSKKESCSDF
T2 sequence (P56817 46-501): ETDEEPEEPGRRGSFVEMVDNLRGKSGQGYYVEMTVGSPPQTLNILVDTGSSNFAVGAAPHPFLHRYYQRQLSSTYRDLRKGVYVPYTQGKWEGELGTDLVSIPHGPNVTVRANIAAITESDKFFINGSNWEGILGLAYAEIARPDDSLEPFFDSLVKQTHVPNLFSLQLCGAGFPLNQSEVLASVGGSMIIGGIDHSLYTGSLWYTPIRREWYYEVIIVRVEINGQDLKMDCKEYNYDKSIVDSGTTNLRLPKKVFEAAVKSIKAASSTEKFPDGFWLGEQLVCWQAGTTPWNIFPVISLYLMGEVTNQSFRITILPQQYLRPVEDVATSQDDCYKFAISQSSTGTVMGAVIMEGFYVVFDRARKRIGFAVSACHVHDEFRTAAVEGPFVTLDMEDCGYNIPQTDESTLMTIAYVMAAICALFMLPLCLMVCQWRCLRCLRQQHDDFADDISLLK

| Structure (SMILES) | inhibition at 10 µM [1] | inhibition at 10 µM [2] | inhibition at 50 µM [3] | inhibition at 10 µM [4, 8] | IC50 ([2]; BuChE from horse serum, mean ± SEM, at least three experiments) | IC50 [1] | IC50 [5] | anti-Aβ aggregation activity [6] | neuroprotective effect against Aβ toxicity [7] | inhibition at 10 µM [4] |
| --- | --- | --- | --- | --- | --- | --- | --- | --- | --- | --- |
| O=C1c2ccccc2C(=O)N1CC(O)CNCc1ccccc1 (centres unmarked) [Compound 1, 2-(3-(Benzylamino)-2-hydroxypropyl)isoindoline-1,3-dione] | 11.5% | 14.1% | 37.3% | < 10% |  |  |  |  |  |  |
| O=C1c2ccccc2C(=O)N1CC(O)CNCc1ccccc1F (centres unmarked) [Compound 2, 2-(3-((2-Fluorobenzyl)amino)-2-hydroxypropyl)isoindoline-1,3-dione] | 28.1% | 19.5% | 39.6% | 21.1% |  |  |  |  |  |  |
| O=C1c2ccccc2C(=O)N1CC(O)CNCc1ccccc1C(F)(F)F (centres unmarked) [Compound 3, 2-(2-Hydroxy-3-((2-(trifluoromethyl)benzyl)amino)propyl)isoindoline-1,3-dione] | 11.8% | < 10% | 41.8% | < 10% |  |  |  |  |  |  |
| O=C1c2ccccc2C(=O)N1CC(O)CNCc1cccc(Cl)c1 (centres unmarked) [Compound 4, 2-(3-((3-Chlorobenzyl)amino)-2-hydroxypropyl)isoindoline-1,3-dione] | < 10% | 24.1% | 34.1% | < 10% |  |  |  |  |  |  |
| COc1ccccc1CNCC(O)CN1C(=O)c2ccccc2C1=O (centres unmarked) [Compound 5, 2-(2-Hydroxy-3-((2-methoxybenzyl)amino)propyl)isoindoline-1,3-dione] | < 10% |  | 39.2% | 19.9% | 7860 ± 290 nM |  |  |  |  |  |
| Cc1ccc(CNCC(O)CN2C(=O)c3ccccc3C2=O)cc1 (centres unmarked) [Compound 6, 2-(2-Hydroxy-3-((4-methylbenzyl)amino)propyl)isoindoline-1,3-dione] | < 10% | 11.6% | 45% | < 10% |  |  |  |  |  |  |
| COc1ccc(CNCC(O)CN2C(=O)c3ccccc3C2=O)cc1 (centres unmarked) [Compound 7, 2-(2-Hydroxy-3-((4-methoxybenzyl)amino)propyl)isoindoline-1,3-dione] | < 10% | 19.1% | 35.1% | < 10% |  |  |  |  |  |  |
| O=C1c2ccccc2C(=O)N1CC(O)CNCc1ccc(Cl)cc1Cl (centres unmarked) [Compound 8, 2-(3-((2,4-Dichlorobenzyl)amino)-2-hydroxypropyl)isoindoline-1,3-dione] | < 10% | 21.7% | 37.2% | < 10% |  |  |  |  |  |  |
| O=C1c2ccccc2C(=O)N1CCC(O)CNCc1ccccc1 (centres unmarked) [Compound 9, 2-(4-(Benzylamino)-3-hydroxybutyl)isoindoline-1,3-dione] | < 10% | < 10% | < 10% | < 10% |  |  |  |  |  |  |
| COc1ccccc1CNCC(O)CCN1C(=O)c2ccccc2C1=O (centres unmarked) [Compound 10, 2-(3-Hydroxy-4-((2-methoxybenzyl)amino)butyl)isoindoline-1,3-dione] | 32.7% | 17.8% | 24.4% | < 10% |  |  |  |  |  |  |
| COc1ccc(CNCC(O)CCN2C(=O)c3ccccc3C2=O)cc1 (centres unmarked) [Compound 11, 2-(3-Hydroxy-4-((4-methoxybenzyl)amino)butyl)isoindoline-1,3-dione] | < 10% | < 10% | 34.8% | < 10% |  |  |  |  |  |  |
| O=C1c2ccccc2C(=O)N1CCCC(O)CNCc1ccccc1 (centres unmarked) [Compound 12, 2-(5-(Benzylamino)-4-hydroxypentyl)isoindoline-1,3-dione] |  | 14.1% | 43.7% | 24.9% |  | 3320 ± 150 nM |  |  |  |  |
| COc1ccccc1CNCC(O)CCCN1C(=O)c2ccccc2C1=O (centres unmarked) [Compound 13, 2-(4-Hydroxy-5-((2-methoxybenzyl)amino)pentyl)isoindoline-1,3-dione] |  | 26.2% | 37.1% | < 10% |  | 11100 ± 490 nM |  |  |  |  |
| O=C1c2ccccc2C(=O)N1CCCCC(O)CNCc1ccccc1 (centres unmarked) [Compound 14, 2-(6-(Benzylamino)-5-hydroxyhexyl)isoindoline-1,3-dione] |  | 36% | 42.1% | < 10% |  | 2130 ± 70 nM |  |  |  |  |
| COc1ccccc1CNCC(O)CCCCN1C(=O)c2ccccc2C1=O (centres unmarked) [Compound 15, 2-(5-Hydroxy-6-((2-methoxybenzyl)amino)hexyl)isoindoline-1,3-dione] |  | 36% | 15.7% | < 10% |  | 1950 ± 60 nM |  |  |  |  |
| O=C1c2ccccc2C(=O)N1CCCCCNCc1ccc(F)cc1 [Compound III, 2-(5-(4-flurobenzylamino)pentyl)isoindoline-1,3-dione] |  |  |  |  |  |  | 268 nM | 66% | neuroprotective effect |  |
| COc1cc2c(cc1OC)C(=O)C(CC1CCN(Cc3ccccc3)CC1)C2 (centres unmarked) [Donepezil, reference compound] |  |  |  |  |  |  |  |  |  | 13.8% |
| Oc1ccc(/C=C/c2cc(O)cc(O)c2)cc1 [Resveratrol, reference compound] |  |  |  | 78.5% |  |  |  |  |  |  |
